One data set has as its system muc5AC protein. As to the kind of experiment: muc5AC ELISA of supernatants of H292 cells exposed to cigarette smoke-bubbled media. It is filed as cell-based, human. As to conditions: transfected H292 cells, CS-10 for 72 hours, triplicate; listed as RAI-3 siRNA 1864+1865. The procedure: At 24 hours post siRNA transfection, the media was changed to serum-free RPMI media containing 20 mM Glutamine and 1% Penicillin-Streptomycin and incubated at 37° C., 5% CO2, for 24 hours. At 48 hours post transfection, the serum-free RPMI media was removed from the cells and replaced with 1.0 ml of cigarette smoke-bubbled medium (i.e., CS-10, the equivalent of 10 cigarettes per 500 ml of cell culture medium) for 72 hours (96 hours post-transfection) or control. At 72 hours (96 hours post-transfection), 100 ul×3 of supernatent from each well in the 24-well plate was transferred to 96-well plate for ELISA analysis.
A muc5AC coating antibody, Gastric Mucin Ab-1 45M1 (NeoMarkers, Fremont, Calif.) was diluted 1:1000 to 1 ug/ml final in 50 mM NaHCO3 pH 9 and coated onto a standard 96-well ELISA plate overnight at room temperature with rotating. The next day the plate was washed three times with 1×PBS/0.05% Tween 20 (PBS-T) and blocked with 200 ul of blocking buffer, 1×PBS/1% BSA final (30% solution, Sigma-Aldrich Co. Saint Louis, Mo.). […] The next day the wells were washed three times with PBS-T. Muc5AC protein in the supernatent was detected with Peroxidase-Labeled Lectin from Glycine Max (Sigma-Aldrich, St. Louis, Mo.) diluted to 1ug/ml in 1×PBS/1% BSA final. […] Color reactions were stopped with 100 μl/well 1 N. H2SO4 and the absorbency at 450 nm-650 nm was measured.
(In general: In an ELISA, binding on a coated surface is turned into a signal by an enzyme label.)

For another data set, the system named is RAI-3 mRNA. The data set is described as follows: RAI-3 mRNA by real-time PCR after treatment of cells with ATRA. Format: cell-based, human. The settings on record: 24 hours. The procedure: 1×10^6 cells of each of the HEK 293, H292 and BEAS-2B cell lines were seeded into two (replicate) 100 mM cell culture dishes containing 20 ml of RPMI complete medium which contained L-glutamine, 10% fetal bovine serum and 1% Penicillin-Streptomycin (Gibco/BRL). To one 100 mM dish, 0.2 μl of DMSO were added. To the other 100 mM dish, 0.2 μl of 10 mM ATRA (Sigma R-2625, St. […] After 24 hours at 37° C. and 5% CO2, cells were lysed with Buffer RLT (Qiagen, Hilden, Germany) and total RNA was harvested pursuant to the Rneasy Midi Kit protocol (Qiagen, Hilden, Germany). RAI-3 messenger RNA levels were measured by Real-time PCR as described below in Example 1(N).
SYBR Green PCR amplification was performed on an ABI PRISM 7700 Sequence Detection System (PE Applied Biosystems, Foster City, Calif.), and the reaction was carried out using SYBR Green PCR Core reagents (PE Applied Biosystems). Real time PCR was carried out at 40 cycles with the following parameters: 95° C. for 15 seconds and 60° C. for 60 seconds, with a pre-incubation period of 50° C. for 2 minutes, followed by 95° C. for 10 minutes. All amplification was normalized to β-actin gene amplification in the linear portion of the amplification curves. Data were then expressed as a fold increase over a reference tissue or cell type.
For orientation: Real-time PCR tracks product formation cycle by cycle.

Entries after “also recorded” stand apart in the source; their conditions may differ. d = 2'-deoxy (DNA); r = 2'-OH (RNA)

As to “RAI-3 siRNA reagent 1864+1865: annealed double stranded siRNA r(GGUGCAGGACUCCAACAGG)d(TT) and r(CCUGUUGGAGUCCUGCACC)d(TT), SEQ ID NO:94 and 95 (chain 1 GGUGCAGGACUCCAACAGGTT; chain 2 CCUGUUGGAGUCCUGCACCTT; sugars from the 5' end r19 d2, backbone not given here)”, the “average ELISA signal, muc5AC protein in the supernatant” value in the data set with muc5AC protein is listed as “significantly reduced”.

On to `CC1=C(/C=C/C(C)=C/C=C/C(C)=C/C(=O)O)C(C)(C)CCC1` [ATRA, all-trans retinoic acid], for which the “RAI-3 mRNA levels” value in the data set with RAI-3 mRNA (H292 cells (high basal level of RAI-3 expression)) is given as “modest, but measurable increase”; in the data set on RAI-3 mRNA (HEK 293, BEAS-2B and H292 cells, ATRA 1 μM), “increase; also recorded: induced”.

(Values after patent US7517652B2, “Methods of diagnosing tumors using the G-protein coupled receptor (GPCR), RAI-3” (Bristol-Myers Squibb Company, priority 2002, dated 2009).)
